Data from patent US5508275A, “Lipid-selective antioxidants and their preparation and use” (Hoechst Aktiengesellschaft, priority 1990, dated 1996).

What was measured:
[1] = system: proneness to thrombosis of hyperlipidemic infarct-sensitive rats; assay: Long-term administration in the hyperlipidemic infarct-sensitive rat: laser-induced thrombosis test (Method XI); assay type: in vivo; settings: 50 mg/kg oral, after 9 days
Method: Male infarct-sensitive rats about 200 g in weight (Mollegaard, Ejby, Denmark) were treated orally once daily with 1 ml/100 g of body weight of a standard diet (100 g of cholic acid, 100 g of cholesterol, 30 g of propylthiouracil to 1 l of sesame oil). While no test substance was administered to the control group I (cf. the following Table), the standard diet in the pharmaceutical experiments II-IV additionally contained 50 mg/kg of body weight of the test substances indicated in the table below. After 9 days, the rats were examined, as described above, in the laser-induced thrombosis test, and the total cholesterol content of the serum was determined.

[2] = Inhibition of the oxidation of lipids: SA-PC in cyclohexane (Method IV); assay type: biochemical; settings: 37° C., absorption at 234 nm
Method: Oxidation of 1-stearoyl-2-arachidonoylphosphatidylcholine (SA-PC) in cyclohexane (37° C.). 100 mcl of a SA-PC solution (10 mg/ml of CHCl3) were evaporated by blowing (argon) and the residue was taken up in 1 ml of cyclohexane. After adding an amount of antioxidant which would also dissolve in olive oil (cf. Table 1), the absorption was measured at 234 nm (Perkin Elmer 5528 spektrophotometer, Uberlingan, FRG) and the solvent was then evaporated by blowing with air. After a fur%her 24 hours standing in an open vessel, the residue was again dissolved in i ml of cyclohexane and the absorption at 234 nm was measured as a measurement of the oxidized SA-PC.

[3] = Long-term administration in the hyperlipidemic infarct-sensitive rat: total serum cholesterol (Method XI); assay type: in vivo; settings: 50 mg/kg oral, after 9 days; control 286
Method: While no test substance was administered to the control group I (cf. the following Table), the standard diet in the pharmaceutical experiments II-IV additionally contained 50 mg/kg of body weight of the test substances indicated in the table below. After 9 days, the rats were examined, as described above, in the laser-induced thrombosis test, and the total cholesterol content of the serum was determined. […] Moreover, the substances according to the invention exerted an advantageous hypolipidemic effect.

[4] = system: thrombus formation in rats; assay: Laser-induced thrombosis in rats in vivo (Method VIII); parameters: species or system rat; settings: 30 mg/kg oral, laser induction 60 min after administration
Method: The experimental procedure was carried out in every detail as described in U.S. Pat. No. 4,694,024. Laser induction took place 60 min after oral administration of the antioxidants.

[5] = Solubility in water and olive oil (Method III)
Method: a) Preparation of olive oil or aqueous solutions. 1 ml of olive oil or I ml of double-distilled water (or dilute NaOH pH=7.6) was added to 1 mg or 10 mg or 50 mg of the respective compound at 37° C. and it was checked whether a clear solution was obtained. The optionally centrifuged and decanted olive oil solutions were heated for 5 minutes using a Bunsen burner and the degree of browning of the olive oil was determined. […] Samples having poor protective action are given a (*) in the table (see below).

[6] = Use as an additive in frying fat: color change of butter (Method II); settings: 1% (weight/weight) in butter
Method: Use as an additive in frying fat: Samples of commercially available German non-blended butter were melted and in each case 1% (weight/weight) of BHT (=butylated hydroxytoluene) or 2,6-di-tert.-butyl-4-(7-nonynoyl)-phenol [=compound according to Example 17] or ethyl 2-(3,5-di-tert.-butyl-4-hydroxybenzyl)-3-oxo-docosanoate [=compound according to Example 18] or N-octadecyl-DL-α-lipoic acid amide [=compound according to Example 52] was added and the mixture was used in the customary manner as frying fat. […] The better protective action of the […] probably comes about as a result of their lipophilic side chains and, therefore, improved lipophilic interaction. The advantageous action of N-octadecyl-DL-α-lipoic acid amide is particularly surprising, although this preparation has no recognizable antioxidative component.

[7] = Antioxidative radical scavenger properties by the diphenylpicrylhydrazine (DPPH) method (Method I); assay type: biochemical; settings: absolute ethanol
Method: Antioxidative radical scavenger properties by the diphenylpicrylhydrazine (DPPH) method: The determination was carried out spectrophotometrically (PMQ4 from Zeiss, Oberkochen, FRG) by the method described in Smith and Reeves, Biochemical Pharmacology 36 (1987) pp. 1457-1460. The measurement is the rate constant determined graphically (concentration versus conversion rate) in a known manner, measured in absolute ethanol.

[8] = olive oil, organic solvent or mixture

Molecule | solubility [5, 8] | solubility ([5]; water) | Solubility, Olive oil ([5]; olive oil) | Solubility, Water ([5]; water) | Reduction in proneness to thrombosis vs. control (%) [1] | prevention of the oxidation of SA-PC, reduced dithiol vs. corresponding oxidized dithio compounds [2] | Total cholesterol [3] | Reduction of thrombus formation [4] | color change of frying fat after the frying procedure [6] | Reaction with DPPH (rate constant) [7]
CCCCCCCCCCCCCCCCCCNC(=O)CCCCC(S)CCS (racemic) [Example 49] | > 10000 µg/mL | < 100 µg/mL |  |  | 34% | possible to prevent the oxidation of SA-PC Just as effectively | 259 mg/dL | 20% |  | 
O=C1O[C@H]([C@@H](O)CO)C(O)=C1O [Ascorbic acid] |  |  |  |  |  |  |  |  |  | 2.99
Cc1c(C)c2c(c(C)c1O)CCC(C)(C(=O)NCCCNC(=O)CC[C@@H](C)[C@H]1CC[C@H]3[C@@H]4CC[C@@H]5C[C@H](O)CC[C@]5(C)[C@H]4C[C@H](O)[C@]13C)O2 (stereo partly shown) [Example 2] | > 10000 µg/mL | > 100 µg/mL |  |  | 50% |  | 270 mg/dL | 14% |  | 
CCCCCCCCCCCCCCCCCCOC(=O)CCCCC(S)CCS (stereo not shown) [Example 50] | > 50000 µg/mL | < 100 µg/mL |  |  |  | possible to prevent the oxidation of SA-PC Just as effectively |  |  |  | 
CCCCCCCCCCCCCCCCCCOC(=O)CCCCC1CCSS1 (stereo not shown) [Example 51] | > 50000 µg/mL | < 100 µg/mL |  |  |  | possible to prevent the oxidation of SA-PC Just as effectively |  |  |  | 

The next lines start with results.

solubility [5, 8] | solubility ([5]; water) | Solubility, Olive oil ([5]; olive oil) | Solubility, Water ([5]; water) | Molecule | Reduction in proneness to thrombosis vs. control (%) [1] | prevention of the oxidation of SA-PC, reduced dithiol vs. corresponding oxidized dithio compounds [2] | Total cholesterol [3] | Reduction of thrombus formation [4] | color change of frying fat after the frying procedure [6] | Reaction with DPPH (rate constant) [7]
> 10000 µg/mL | < 100 µg/mL |  |  | CCCCCCCCCCCCCCCCCCNC(=O)CCCCC1CCSS1 (racemic) [Example 52, N-octadecyl-DL-α-lipoic acid amide] |  | possible to prevent the oxidation of SA-PC Just as effectively |  | 14% | substantially lower color change | 
 |  | > 10000 µg/mL | < 100 µg/mL | Vitamin E [reference compound] | 26% |  | 278 mg/dL | 5% |  | 
